Holding throughout (assay type): functional
Assay [1] relates to Henosepilachna vigintioctopunctata. The assay can be described thus: Antifeedant activity against fourth-instar nymphs of Henosepilachna vigintioctopunctata at 0.05 mg/cm'2 after 4 hr.
Assay [2] has the same test system. The assay can be described thus: Antifeedant activity against fourth-instar nymphs of Henosepilachna vigintioctopunctata at 5 mg/cm'2 after 4 hr.
For assay [3] the test system is unchanged. The assay can be described thus: Antifeedant activity against adults of Henosepilachna vigintioctopunctata at 0.05 mg/cm'2 after 4 hr.
The test system is the same in assay [4]. The assay can be described thus: Antifeedant activity against adults of Henosepilachna vigintioctopunctata at 0.5 mg/cm'2 after 4 hr.
Assay [5] shares this test system. The assay is described as follows: Antifeedant activity against adults of Henosepilachna vigintioctopunctata at 5 mg/cm'2 after 4 hr.
For assay [6] the test system is unchanged. The assay can be described thus: Antifeedant activity against fourth-instar nymphs of Henosepilachna vigintioctopunctata at 0.5 mg/cm'2 after 4 hr.

For `CC(=O)OC[C@@]12[C@@H](OC(C)=O)C[C@@H](C)[C@](C)([C@@H]3C[C@H]4C=CO[C@H]4O3)[C@H]1CC[C@@H](OC(C)=O)[C@]21CO1` [CARYOPTIN], the Activity in assay [1] is listed as 34.37%; in assay [2], 44.46%; in assay [3] it was -5.31%; in assay [4], -10.03%; in assay [5], 84.95%; in assay [6] it was 72.51%.

Turning to `CC(=O)OC[C@@]12[C@@H](OC(C)=O)C[C@@H](C)[C@](C)([C@@H]3C[C@@H]4CCO[C@H]4O3)[C@H]1CC[C@H](OC(C)=O)[C@]21CO1` [14,15-DIHYDRO-3-EPICARYOPTIN], the Activity in assay [1] amounted to 21.14%; in assay [2], 39.2%; in assay [3] it was 10.2%; in assay [4], 8.39%; in assay [5], 39.34%; in assay [6], 20.39%.

With `C[C@@]12CCCC(CO)(CO)[C@H]1CC[C@H](CO)[C@H]2CCC1=CCOC1=O` [WIGHTIONOLIDE], the Activity in assay [1] is on record as -52.79%; in assay [2], -11.72%; in assay [3] it was 18.42%; in assay [4], 7.15%; in assay [5] it was -4.1%; in assay [6] it was -14.03%.

In the case of `CC(=O)OC[C@@]12C=C[C@@H](C)[C@](C)([C@@H]3C[C@H]4C(OC(C)=O)CO[C@H]4O3)[C@H]1CC[C@H](OC(C)=O)[C@]21CO1` (stereo partly specified), the Activity is listed as -18.69% in assay [1]; 1.28% in assay [2]; -20.26% in assay [3]; 22.53% in assay [4]; 23.45% in assay [5]; -1.39% in assay [6].

Regarding `CC(=O)OC[C@@]12[C@@H](OC(C)=O)C[C@@H](C)[C@](C)([C@@H]3C[C@H]4C=CO[C@H]4O3)[C@H]1CC[C@H](OC(C)=O)[C@]21CO1` [3-EPICARYOPTIN], the Activity in assay [1] stood at 16.12%; in assay [2], 23.56%; in assay [3] it was 31.07%; in assay [4], 37.02%; in assay [5], 31.93%; in assay [6] it was 9.37%.

On to `C=C1CC[C@@H]2[C@](C)(CO)[C@H](O)CC[C@@]2(C)[C@@H]1C/C=C1/C(=O)OC[C@H]1O` [ANDROGRAPHOLIDE], for which the Activity in assay [1] is given as -16.76%; in assay [2], 54.06%; in assay [3], -10.95%; in assay [4] it was 1.04%; in assay [5] it was 24.26%; in assay [6] it was -52.38%.
